{"source": "patent US20190105367A1", "about": "“ANTIMICROBIAL 4-OXOQUINOLIZINES” (Emergent Product Development Gaithersburg Inc., priority 2011, published 2019)", "key": {"S. epidermis 12228": {"system": "S. epidermis 12228", "experiment": "MIC, standard panel of Gram-positive and Gram-negative strains (Example 2)", "assay_type": "cell-based, Staphylococcus epidermis", "details": "Staphylococcus"}, "[1]": {"system": "Acinetobacter sp. (H064200250)", "experiment": "Preliminary MBC without and with sub-inhibitory polymyxin B (Example 4)", "assay_type": "cell-based", "details": "Acinetobacter, preliminary MBC", "method_in_brief": "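Read-out: the minimum concentration at which colonies were reduced by ca. 90% relative to positive control, usually seen as isolated colonies or a clear plate. Plates had been kept 18-20 hours at 37° C beforehand.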"}, "E. cloacae 13047": {"system": "E. cloacae 13047", "experiment": "MIC, standard panel of Gram-positive and Gram-negative strains (Example 2)", "assay_type": "cell-based, Enterobacter cloacae", "details": "Enterobacter cloacae, 13047; read-out: MIC E. cloacae 13047"}, "E. faecalis 29212": {"system": "E. faecalis 29212", "experiment": "MIC, standard panel of Gram-positive and Gram-negative strains (Example 2)", "assay_type": "cell-based, Enterococcus faecalis", "details": "Enterococcus faecalis, 29212; read-out: MIC E. faecalis 29212"}, "A. baumannii ATCC 19606": {"system": "A. baumannii ATCC 19606", "experiment": "Preliminary MBC without and with sub-inhibitory polymyxin B (Example 4)", "assay_type": "cell-based, Acinetobacter baumannii", "details": "Acinetobacter baumannii"}, "Cytotoxicity (Example 7)": {"experiment": "Cytotoxicity (Example 7)", "assay_type": "cell-based", "details": "human, HEPG2 V1 cells", "method": "The 4-oxoquinolizine compounds of the invention preferably have a low cytotoxicity against human cells. […].\nCytotoxicity was determined for the instant 4-oxoquinolizine compounds which show low cytotoxicity. (see Table 17 following). […]"}, "S. aureus SMITH": {"system": "S. aureus SMITH", "experiment": "MIC, panel of quinolone-resistant strains (Example 2)", "assay_type": "cell-based", "details": "Staphylococcus aureus; CIP R; read-out: MIC S. aureus SMITH"}, "S. pneumoniae 49619": {"system": "S. pneumoniae 49619", "experiment": "MIC, panel of quinolone-resistant strains (Example 2)", "assay_type": "cell-based, Streptococcus pneumoniae", "details": "Streptococcus pneumoniae, 49619; LEV S; read-out: MIC S. pneumoniae 49619"}, "A. baumannii A489": {"system": "A. baumannii A489", "experiment": "MIC without and with sub-inhibitory polymyxin B (Example 4)", "assay_type": "cell-based, Acinetobacter baumannii", "details": "for MIC without PB/MIC + PB: A. baumannii A489; for MIC: Acinetobacter baumannii"}, "A. baumannii J2": {"system": "A. baumannii J2", "experiment": "Preliminary MBC without and with sub-inhibitory polymyxin B (Example 4)", "assay_type": "cell-based, Acinetobacter baumannii", "details": "Acinetobacter baumannii, preliminary MBC"}, "S. aureus 101": {"system": "S. aureus 101", "experiment": "MIC, standard panel of Gram-positive and Gram-negative strains (Example 2)", "assay_type": "cell-based", "details": "Staphylococcus aureus"}, "A. baumanii 19606": {"system": "A. baumanii 19606", "experiment": "MIC, standard panel of Gram-positive and Gram-negative strains (Example 2)", "assay_type": "cell-based", "details": "Acinetobacter baumannii"}}, "note": "Read-outs that look alike come from different tables or passages of the source."}
{"smiles": "Cc1c(-c2cc(Cl)c(N)c(Cl)c2)ccn2c(=O)c(C(=O)O)cc(C3CC3)c12", "note": "[Compound 3, 8-(3,5-dichloro-4-amino-phenyl)-1-cyclopropyl-9-methyl-4-oxo-quinolizine-3-carboxylic acid]", "values": [{"measurement": "MIC", "setting": "S. epidermis 12228", "result": 0.008, "unit": "µg/mL"}, {"measurement": "MBC", "setting": "[1]; Acinetobacter spp. H064200250 (OXA51), +[…] PB, 2nd experiment, read-out: MBC", "result": 0.06, "unit": "µg/mL"}, {"measurement": "MBC", "setting": "[1]; read-out: MBC +[…] PB, Acinetobacter spp. H064200250, +[…] polymyxin B, 1st experiment", "result": 0.5, "unit": "µg/mL"}, {"measurement": "MIC", "setting": "E. cloacae 13047", "result": 0.5, "unit": "µg/mL"}, {"measurement": "MIC", "setting": "E. faecalis 29212", "result": 0.016, "unit": "µg/mL"}, {"measurement": "MBC", "setting": "A. baumannii ATCC 19606; ATCC19606, A. baumannii ATCC 19606, +0.06 μg/ml PB, 2nd experiment, read-out: MBC", "result": "≤ 0.03", "unit": "µg/mL"}, {"measurement": "MBC", "setting": "A. baumannii ATCC 19606; ATCC19606, read-out: MBC +0.06 μg/ml PB, A. baumannii ATCC 19606, +0.06 μg/ml polymyxin B, 1st experiment", "result": "≤ 0.03", "unit": "µg/mL"}, {"measurement": "IC50", "setting": "Cytotoxicity (Example 7)", "result": 50, "unit": "µM"}, {"measurement": "MIC", "setting": "S. aureus SMITH", "result": 0.5, "unit": "µg/mL"}, {"measurement": "MIC", "setting": "S. pneumoniae 49619", "result": 0.5, "unit": "µg/mL"}, {"measurement": "MIC without PB/MIC + PB", "setting": "A. baumannii A489; +[…] PB, 2nd experiment", "result": "≥128"}, {"measurement": "MIC without PB/MIC + PB", "setting": "A. baumannii A489; ratio, PB […], 1st experiment", "result": 64}, {"measurement": "MIC", "setting": "A. baumannii A489; A489, A. baumannii A489, +[…] PB, 2nd experiment, read-out: MIC", "result": "≤ 0.03", "unit": "µg/mL"}, {"measurement": "MIC", "setting": "A. baumannii A489; A489, read-out: MIC +[…] PB, A. baumannii A489, +[…] polymyxin B, 1st experiment", "result": 0.06, "unit": "µg/mL"}, {"measurement": "MBC", "setting": "A. baumannii J2; J2, A. baumannii J2, +[…] PB, 2nd experiment, read-out: MBC", "result": "≤ 0.03", "unit": "µg/mL"}, {"measurement": "MBC", "setting": "A. baumannii J2; J2, read-out: MBC +[…] PB, A. baumannii J2, +[…] polymyxin B, 1st experiment", "result": 0.125, "unit": "µg/mL"}, {"measurement": "MIC", "setting": "S. aureus 101", "result": 0.06, "unit": "µg/mL"}, {"measurement": "MIC", "setting": "A. baumanii 19606", "result": 0.25, "unit": "µg/mL"}]}
